Test results from US7344845B2, “Olfactory receptor for isovaleric acid and related malodorants and use thereof in assays for identification of blockers of malodor” (Senomyx, Inc., priority 2001, dated 2008).

System: individual murine olfactory neurons
Assay: Ca2+ imaging (fura-2) of isolated murine olfactory neurons contacted with isovaleric acid
Format: cell-based, Balb/C mice
Method: Essentially, individual murine olfactory neurons isolated from an enzymatically and mechanically dissociated preparations of murine olfactory epithelium. A very mild trypsin dissociation allows to obtain a single cell suspension in which neurons still bear their axon and dendrites and can therefore be picked based on their morphology. The neurons were loaded with a Ca^2+-sensing fluorescent dye (fura-2) and contacted with isovaleric acid (at 10–100 μM). Single neurons that responded to the isovaleric acid stimulus, as indicated by transient increases in the concentration of intracellular Ca2+ were identified in a microscope field and collected using a suction microcapillary. […]
Olfactory neuroepithelium was dissected from Balb/C mice and placed in a small Petri dish with phosphate-buffered saline (PBS) without Ca^2+ and Mg^2+. […] After dissociation, the tissue was transferred into 5 ml PBS without Ca^2+ and Mg^2+ and the tissue was triturated very gently by pipetting up and down 4–5 times with plastic disposable, progress of cell dissociation was monitored under inverted microscope. […] Isolated olfactory sensory neurons were identified in an inverted microscope field either by their morphology alone (for random control neurons) or by the morphology and ability to respond to IVA as detected by Ca^2+-imaging. […]

murine olfactory receptors activated (receptors expressed in IVA-responding neurons) (isovaleric acid at 10–100 μM, eleven murine olfactory receptors, mOR IVA A through mOR IVA L): activated
Structure (SMILES): CC(C)CC(=O)O [isovaleric acid]
response of a single olfactory neuron indicated by changes in fura-2 fluorescence intensity ratios (340/380 nm) (IVA at either 100 μM or 10 μM, single isolated neuron, FIG. 3): response
